Among the test systems are NCI-H460; HCT-15; HOP-62; COLO 205; SK-OV-3; RXF 393; UACC-62; SR; A549; CAKI-1; K562; OVCAR-3; NCI/ADR-RES; NCI-H23; OVCAR-4; OVCAR-8; HCT-116; ACHN; BT-549; SF-295.
Holding throughout (experiment): NCI anticancer screen, dose series, 48 h

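Compound exposure: 48 hours, 5 concentrations, 96-well plates. At the GI50, growth is halved.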 Calls of active or inactive are those of the source. Cut-off read from the data, not from the text of the source: active = GI50 up to about 1.1 µM and inactive = higher.

`O=C(CSc1n[nH]c(=O)[nH]c1=O)NNC(=O)c1cccc2nc3ccccc3nc12`: the GI50 in the assay with NCI-H460 is 32.6 µM (inactive); in the assay with HCT-15, 72.8 µM; with HOP-62 it was > 100 µM (inactive); in the assay on COLO 205 it was 31.8 µM (inactive); with SK-OV-3 it was > 100 µM (inactive); in the assay with RXF 393, > 100 µM (inactive). In addition, the GI50 in the assay with UACC-62 is > 100 µM (inactive); in the assay on SR, > 100 µM (inactive); in the assay on A549, 39.4 µM (inactive); in the assay on CAKI-1 it was > 100 µM (inactive); in the assay on K562, > 100 µM (inactive); in the assay with OVCAR-3, > 100 µM (inactive). The GI50 in the assay with NCI/ADR-RES was > 100 µM (inactive); with NCI-H23 it was 35.9 µM (inactive); in the assay on OVCAR-4 it was > 100 µM (inactive); in the assay with OVCAR-8, > 100 µM (inactive); in the assay on HCT-116, > 100 µM (inactive); in the assay on ACHN it was > 100 µM (inactive). Besides, the GI50 was 29.2 µM (inactive) in the assay on BT-549 and 59.3 µM (inactive) in the assay on SF-295.

As to `O=C1C(/C=C/c2ccc(Cl)cc2)=NNC2N1N=C1NC(=O)C3(NN12)c1ccccc1-c1ccccc13` (stereo not given), the GI50 was > 100 µM (inactive) with NCI-H460; 69.5 µM in the assay on HCT-15; > 100 µM (inactive) in the assay on HOP-62; > 100 µM (inactive) in the assay with COLO 205; > 100 µM (inactive) with SK-OV-3; > 100 µM (inactive) in the assay with RXF 393. Besides, the GI50 with UACC-62 is > 100 µM (inactive); with SR it was < 0.01 µM (active); in the assay with A549 it was > 100 µM (inactive); in the assay with CAKI-1, > 100 µM (inactive); in the assay with K562 it was 35.4 µM (inactive); in the assay on OVCAR-3, > 100 µM (inactive). Moreover, the GI50 in the assay on NCI/ADR-RES, with NCI-H23, in the assay with OVCAR-4, in the assay on OVCAR-8, in the assay with HCT-116 and in the assay with ACHN was > 100 µM (inactive) throughout. Moreover, the GI50 with BT-549 and in the assay on SF-295 was > 100 µM (inactive) throughout.

As for `N#Cc1ncc(C(Cl)Cl)nc1Cl`, the GI50 with NCI-H460 is 1.81 µM (inactive); in the assay with HCT-15, 1.82 µM; with HOP-62, 3.07 µM (inactive); with COLO 205 it was 1.77 µM (inactive); with SK-OV-3 it was 3.78 µM (inactive); in the assay with RXF 393, 1.75 µM (inactive). Further, the GI50 was 2.17 µM (inactive) with UACC-62; 1.81 µM (inactive) in the assay with SR; 3.24 µM (inactive) with A549; 1.4 µM (inactive) with CAKI-1; 1.33 µM (inactive) with K562; 2.12 µM (inactive) in the assay with OVCAR-3. In addition, the GI50 with NCI/ADR-RES was 2.14 µM (inactive); in the assay on NCI-H23 it was 2.12 µM (inactive); in the assay with OVCAR-4 it was 1.85 µM (inactive); in the assay on OVCAR-8, 2.15 µM (inactive); in the assay with HCT-116, 1.67 µM (inactive); in the assay with ACHN, 2.04 µM (inactive). Moreover, the GI50 in the assay on BT-549 was 1.84 µM (inactive); with SF-295 it was 7.24 µM (inactive).

Consider `CN(C)CCc1ccnc2nc(-c3ccc4ccccc4c3)cn12`, for which the GI50 is 14.7 µM (inactive) in the assay with NCI-H460; 34.6 µM in the assay on HCT-15; 56.9 µM (inactive) in the assay on HOP-62; 33.3 µM (inactive) in the assay on COLO 205; 38.5 µM (inactive) in the assay on SK-OV-3; 30.9 µM (inactive) in the assay with RXF 393. For the same compound, the GI50 is 44.5 µM (inactive) in the assay with UACC-62; 57.5 µM (inactive) in the assay with SR; > 100 µM (inactive) in the assay with A549; 35.2 µM (inactive) in the assay on CAKI-1; 79.8 µM (inactive) in the assay on K562; 25.8 µM (inactive) in the assay with OVCAR-3. Moreover, the GI50 is 26.2 µM (inactive) in the assay with NCI/ADR-RES; 20.4 µM (inactive) with NCI-H23; 27.5 µM (inactive) in the assay with OVCAR-4; 26.9 µM (inactive) in the assay on OVCAR-8; 31.7 µM (inactive) in the assay with HCT-116; 29.4 µM (inactive) in the assay on ACHN. For the same compound, the results for the GI50 in the assay with BT-549 and in the assay on SF-295 were 23.4 µM (inactive) and 88.7 µM (inactive), respectively.

On to `CCOC(=O)c1[nH]cc(C)c1-c1c[nH]c2ccccc12`, for which the GI50 in the assay with NCI-H460 is 12.1 µM (inactive); with HCT-15, 8.81 µM; in the assay on HOP-62, 35.3 µM (inactive); with COLO 205, 15.4 µM (inactive); in the assay with SK-OV-3, 32.3 µM (inactive); in the assay with RXF 393 it was 30.1 µM (inactive). Also, the GI50 is 14.4 µM (inactive) with UACC-62; 1.82 µM (inactive) in the assay with SR; 28.8 µM (inactive) in the assay on A549; 37.1 µM (inactive) in the assay on CAKI-1; 6.04 µM (inactive) with K562; 26.7 µM (inactive) in the assay with OVCAR-3. Also, the GI50 with NCI/ADR-RES was 21.4 µM (inactive); in the assay with NCI-H23, 27.2 µM (inactive); in the assay with OVCAR-4 it was 41.5 µM (inactive); with OVCAR-8, 27.1 µM (inactive); with HCT-116 it was 6.93 µM (inactive); with ACHN, 23 µM (inactive). Besides, the GI50 in the assay with BT-549 is 26.5 µM (inactive); in the assay on SF-295, 29 µM (inactive).

In the case of `O=C1CS(=O)(=O)C(c2cccc(Oc3ccccc3)c2)N1c1ccc(Cl)cc1` (stereo not given), the GI50 with NCI-H460 is 15 µM (inactive); in the assay on HCT-15, 20.2 µM; in the assay with HOP-62, 46.7 µM (inactive); with COLO 205, 17.7 µM (inactive); in the assay on SK-OV-3, 49 µM (inactive); in the assay on RXF 393 it was 18.6 µM (inactive). In addition, the GI50 is 8.71 µM (inactive) in the assay on UACC-62; 10.6 µM (inactive) with SR; 30.8 µM (inactive) with A549; 15.6 µM (inactive) with CAKI-1; 14.5 µM (inactive) in the assay with K562; 24.2 µM (inactive) in the assay on OVCAR-3. The GI50 with NCI/ADR-RES is 18.9 µM (inactive); in the assay with NCI-H23 it was 21.1 µM (inactive); in the assay on OVCAR-4, 22.8 µM (inactive); in the assay with OVCAR-8, 18.8 µM (inactive); with HCT-116, 7.91 µM (inactive); with ACHN, 19 µM (inactive). Moreover, the GI50 is 24.7 µM (inactive) in the assay on BT-549 and 26.5 µM (inactive) with SF-295.

Consider `CN1CCN([C@H]2C[C@H]3[C@@H]4CC=C5C[C@@H](O)CC[C@]5(C)[C@H]4CC[C@]3(C)C2=O)CC1`, for which the GI50 with NCI-H460 is > 100 µM (inactive); in the assay with HCT-15, more than 100 µM; with HOP-62, > 100 µM (inactive); in the assay with COLO 205 it was > 100 µM (inactive); with SK-OV-3, > 100 µM (inactive); in the assay with RXF 393, > 100 µM (inactive). Moreover, the GI50 was > 100 µM (inactive) in the assay on UACC-62; 29.4 µM (inactive) in the assay on SR; > 100 µM (inactive) in the assay with A549; > 100 µM (inactive) in the assay on CAKI-1; 34.3 µM (inactive) in the assay with K562; > 100 µM (inactive) with OVCAR-3. Besides, the GI50 in the assay on NCI/ADR-RES, with NCI-H23, in the assay on OVCAR-4, in the assay with OVCAR-8, in the assay on HCT-116 and in the assay on ACHN was > 100 µM (inactive) each time. Besides, the GI50 with BT-549 and in the assay on SF-295 was > 100 µM (inactive) throughout.

Consider `NNC(=O)c1c(-c2cccnc2)cnc2ccccc12`, for which the GI50 in the assay on NCI-H460 was > 100 µM (inactive); in the assay with HCT-15 it was more than 100 µM; in the assay with HOP-62, > 100 µM (inactive); in the assay on COLO 205, > 100 µM (inactive); with SK-OV-3, 4.02 µM (inactive); with RXF 393 it was > 100 µM (inactive). Besides, the GI50 with UACC-62, in the assay with SR, in the assay on A549, in the assay on CAKI-1, in the assay with K562 and in the assay with OVCAR-3 was > 100 µM (inactive) in each case. Moreover, the GI50 in the assay on NCI/ADR-RES, in the assay on NCI-H23, in the assay on OVCAR-4, with OVCAR-8, in the assay on HCT-116 and in the assay with ACHN was > 100 µM (inactive) in each case. Further, the GI50 with BT-549 and with SF-295 was > 100 µM (inactive) each time.

As for `COC(=O)[C@H](Cc1ccccc1)NC(=O)[C@H](Cc1ccccc1)NC(=O)[C@@H]1CCCN1C(=O)N[C@H]1C2C=CC(C2)C1C(=O)N1CCC[C@H]1C(=O)N[C@@H](C)C(=O)N[C@H](C(=O)OC)C(C)C` (stereo not given in full), the GI50 was > 100 µM (inactive) in the assay on NCI-H460; more than 100 µM in the assay with HCT-15; > 100 µM (inactive) in the assay with HOP-62; > 100 µM (inactive) in the assay with COLO 205; > 100 µM (inactive) in the assay with SK-OV-3; > 100 µM (inactive) with RXF 393. Moreover, the GI50 is 92 µM (inactive) with UACC-62; 49.7 µM (inactive) in the assay with SR; > 100 µM (inactive) in the assay with A549; > 100 µM (inactive) with CAKI-1; 33.9 µM (inactive) in the assay on K562; > 100 µM (inactive) with OVCAR-3. The GI50 in the assay on NCI/ADR-RES, in the assay on NCI-H23, in the assay on OVCAR-4, in the assay with OVCAR-8, in the assay on HCT-116 and with ACHN was > 100 µM (inactive) in each case. For the same compound, the GI50 in the assay on BT-549 was 40.9 µM (inactive); with SF-295 it was 30.8 µM (inactive).

For the origin of these results see ChEMBL document CHEMBL1201862, “PubChem BioAssay data set” (2004).
